Drawing on paper PMC12347832, “Multi-Component Synthesis of New Fluorinated-Pyrrolo[3,4-b]pyridin-5-ones Containing the 4-Amino-7-chloroquinoline Moiety and In Vitro–In Silico Studies Against Human SARS-CoV-2” (International Journal of Molecular Sciences, 2025), this text covers viability, IC50 and plaque reduction for eight molecules.

SMILES strings stand for the structures. Like-named read-outs stand apart in the source and are kept apart here.

Usually viability stands for a per cent measure of how many cells are alive, often set against a control. As a reminder, the IC50 is the concentration needed to halve the response being measured.

Data set [1] in a line: Cell viability assay (crystal violet). The settings on record: African green monkey.
In another data set the test system is SARS-CoV-2. As to the kind of experiment: Plaque reduction / time-of-addition assay. In kind it is cell-based. The settings on record: for IC50: Vero E6, MOI 0.1, plaque assay.
In the next data set the test system is SARS-CoV. The settings on record: cited from earlier work.
[2] abbreviates: Severe acute respiratory syndrome coronavirus 2, Vero C1008, compound added at the time of infection (0 h), read-out: IC50 (µM) 0 h.
[3] abbreviates: Severe acute respiratory syndrome coronavirus 2, Vero C1008, read-out: IC50 (µM) 1 h, compound added 1 h postinfection.

As for `CCN(CC)c1cc2c(nc1Cc1ccccc1)C(c1ccc(F)cc1)N(CCNc1ccnc3cc(Cl)ccc13)C2=O` (stereo not drawn) [19d, 2-Benzyl-6-(2-((7-chloroquinolin-4-yl)amino)ethyl)-3-(diethylamino)-7-(4-fluorophenyl)-6,7-dihydro-5H-pyrrolo[3,4-b]pyridin-5-one], the viability at 48 h, 10 µM in data set [1] is above 90%. Besides, in the data set with SARS-CoV-2 (setting [2]), the IC50 stood at 6.74 µM.
Turning to `O=C1c2cc(N3CCOCC3)c(Cc3ccccc3)nc2C(c2ccccc2F)N1CCNc1ccnc2cc(Cl)ccc12` (stereo not drawn) [19e, 2-Benzyl-6-(2-((7-chloroquinolin-4-yl)amino)ethyl)-7-(2-fluorophenyl)-3-morpholino-6,7-dihydro-5H-pyrrolo[3,4-b]pyridin-5-one], the IC50 with SARS-CoV-2 (setting [2]) is 17.1 µM.
As to `O=C1c2cc(N3CCOCC3)c(Cc3ccccc3)nc2C(c2ccccc2F)N1CCCNc1ccnc2cc(Cl)ccc12` (stereo not drawn) [19f, 2-Benzyl-6-(3-((7-chloroquinolin-4-yl)amino)propyl)-7-(2-fluorophenyl)-3-morpholino-6,7-dihydro-5H-pyrrolo[3,4-b]pyridin-5-one], the viability at 48 h, 10 µM in data set [1] is above 80%. Also, the half-inhibitory concentration (IC50) with SARS-CoV-2 (setting [2]) came to 9.23 µM.
`O=C1c2cc(N3CCOCC3)c(Cc3ccccc3)nc2C(c2ccc(C(F)(F)F)cc2)N1CCNc1ccnc2cc(Cl)ccc12` (stereo not drawn) [19g, 2-Benzyl-6-(2-((7-chloroquinolin-4-yl)amino)ethyl)-3-morpholino-7-(4-(trifluoromethyl)phenyl)-6,7-dihydro-5H-pyrrolo[3,4-b]pyridin-5-one] came in with a viability at 48 h, 10 µM in data set [1] above 80%. Further, the IC50 in the data set with SARS-CoV-2 (setting [3]) turned out to be 6.98 µM; in the data set with SARS-CoV-2 (setting [2]), 7.5 µM.
In data set [1], `CCN(CC)c1cc2c(nc1Cc1ccccc1)C(c1ccc(C(F)(F)F)cc1)N(CCNc1ccnc3cc(Cl)ccc13)C2=O` (stereo not drawn) [19i, 2-Benzyl-6-(2-((7-chloroquinolin-4-yl)amino)ethyl)-3-(diethylamino)-7-(4-(trifluoromethyl)phenyl)-6,7-dihydro-5H-pyrrolo[3,4-b]pyridin-5-one] yielded a viability at 48 h, 10 µM above 90%. For the same molecule, the IC50 in the data set with SARS-CoV-2 (setting [3]) turned out to be 5.29 µM; in the data set on SARS-CoV-2 (setting [2]), 24 µM. In the data set with SARS-CoV-2 (compound added 1 h postinfection), the plaque reduction result is on record as “approximately one logarithmic unit”.
With `O=C1c2cc(N3CCOCC3)c(Cc3ccccc3)nc2C(c2cc(C(F)(F)F)cc(C(F)(F)F)c2)N1CCNc1ccnc2cc(Cl)ccc12` (stereo not drawn) [19j, 2-Benzyl-7-(3,5-bis(trifluoromethyl)phenyl)-6-(2-((7-chloroquinolin-4-yl)amino)ethyl)-3-morpholino-6,7-dihydro-5H-pyrrolo[3,4-b]pyridin-5-one], in the data set with SARS-CoV-2 (setting [2]), the IC50 amounted to 15 µM.
On to `O=C1c2cc(N3CCOCC3)c(Cc3ccccc3)nc2C(c2c(F)c(F)c(F)c(F)c2F)N1CCCNc1ccnc2cc(Cl)ccc12` (stereo not drawn) [19l, 2-Benzyl-6-(3-((7-chloroquinolin-4-yl)amino)propyl)-3-morpholino-7-(perfluorophenyl)-6,7-dihydro-5H-pyrrolo[3,4-b]pyridin-5-one], for which, in the data set on SARS-CoV-2 (setting [2]), the IC50 is 7.06 µM.
Regarding `CCN(CC)CCCC(C)Nc1ccnc2cc(Cl)ccc12` (stereo not drawn) [Chloroquine], the IC50 in the data set with SARS-CoV is 8.8 µM.
